PubChem BioAssay (NCI)
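Assay format: 96-well plates, 48-hour exposure. TGI: concentration producing complete growth inhibition.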

How the values were obtained:
Test in all cases: growth of human tumour cells (NCI), 48 h
EKVX NSCLC = test system: EKVX NSCLC
HL-60(TB) leukemia = test system: HL-60(TB) leukemia
MOLT-4 leukemia = test system: MOLT-4 leukemia
RPMI-8226 leukemia = test system: RPMI-8226 leukemia
SK-MEL-2 melanoma = test system: SK-MEL-2 melanoma
SK-OV-3 ovarian = test system: SK-OV-3 ovarian
UACC-257 melanoma = test system: UACC-257 melanoma
UO-31 renal = test system: UO-31 renal
M14 melanoma = test system: M14 melanoma
PC-3 prostate = test system: PC-3 prostate

SMILES	TGI (EKVX NSCLC) [µM]	TGI (HL-60(TB) leukemia) [µM]	TGI (MOLT-4 leukemia) [µM]	TGI (RPMI-8226 leukemia) [µM]	TGI (SK-MEL-2 melanoma) [µM]	TGI (SK-OV-3 ovarian) [µM]	TGI (UACC-257 melanoma) [µM]	TGI (UO-31 renal) [µM]	TGI (M14 melanoma) [µM]	TGI (PC-3 prostate) [µM]
[C-]#[O+].[Cl][Sn]([Cl])[Cl].[Cl][Sn]([Cl])[Cl].[Pt].c1cnc2c(c1)ccc1cccnc12	44.4	7.95	> 30.9	> 65.8	18.6	27.8	> 100	> 33.8	–	–
O=c1c2ccc(Cl)cc2oc2c(CSc3ccccc3)cccc12	> 100	–	> 100	81.3	> 100	> 100	> 100	> 38.4	> 100	> 100
COC(=O)c1c(O)ccc2c1c1c(n2Cc2ccc(OC)cc2)C(=O)c2ccccc2C1	–	> 100	> 100	31.5	> 100	> 100	> 100	> 100	> 100	59.5
COc1cc2c(cc1O)NC(=O)[C@@H]1C[C@@H](O)CN1C2=O	> 100	–	> 100	> 100	> 100	> 100	> 100	> 100	> 100	> 100
CN(C)c1cccc2c(S(=O)(=O)NCCN)cccc12	> 100	> 100	> 100	–	> 100	> 100	> 100	> 100	> 100	> 100
CCOC(=O)C(Cc1ccc(N=NN(C)C)cc1)NC(=O)CC1c2ccccc2-c2ccccc21 (stereo not given)	> 100	> 100	> 100	> 100	> 100	> 100	> 100	> 100	> 100	–
Cc1ccc(S(=O)(=O)NC(=O)Nc2ccc(C(=O)O)cc2)cc1	–	> 100	> 100	> 100	> 100	> 100	> 100	> 100	> 100	> 100
CC(=O)c1c(-c2ccc(Cl)cc2)c(C#N)c(=S)n(C2OC(CO)C(O)C(O)C2O)c1C (stereo not given)	–	54	52.8	–	84.5	> 100	> 100	6.92	> 100	99.3
O=[N+]([O-])/C=C/c1cc(Cl)c(/C=C/[N+](=O)[O-])cc1Cl	5.02	–	–	3.99	12.8	> 56.6	5.25	–	4.37	9.15
COc1ccc(O[C@H](CO)C[C@@H]2COC(C)(C)O2)cc1	> 100	–	> 100	> 100	> 100	> 100	> 100	> 100	> 100	> 100
O=C(O)C1CCC(=O)N1C(=O)COc1cc(Cl)c(Cl)cc1Cl (stereo not given)	> 100	–	–	–	–	> 100	> 100	> 100	> 100	–
CC(C)CNP(=O)(NCC(C)C)Oc1ccc(CC(NC(=O)OCc2ccccc2)C(=O)OCc2ccccc2)cc1 (stereo not given)	77.2	–	41.1	40	34.8	29.2	59.1	39	67.7	30.8
Cc1cc(-c2ccc(N=Nc3ccc4c(S(=O)(=O)O)cc(S(=O)(=O)O)c(N)c4c3O)c(C)c2)ccc1N=Nc1ccc2c(S(=O)(=O)O)cc(S(=O)(=O)O)c(N)c2c1O	> 100	> 100	> 100	> 100	> 100	> 100	> 100	> 100	–	–
NC1CCC2(O)c3ccccc3C2C1 (stereo not given)	> 100	> 100	> 100	> 100	> 100	> 100	> 100	> 100	> 100	–
CC[C@]1(c2ccc3c(c2)OCO3)C=[N+]([O-])O[C@H](OC2CCCC2(c2ccccc2)c2ccccc2)[C@@H]1OC(C)=O (stereo not given in full)	12.8	12.1	> 19.8	–	5.73	14.4	7.62	5.21	4.84	13.1
CCc1c(O)nc(Nc2nc3ccccc3[nH]2)[nH]c1=O	–	> 100	–	–	> 100	> 100	> 100	> 100	> 100	> 100
O=C(Nc1cccc2ccccc12)c1cc2ccccc2oc1=O	–	> 100	> 100	> 100	> 100	> 100	> 100	–	> 100	> 100
CN1C(c2ccccc2)CC(O)CC1c1ccccc1 (stereo not given)	> 100	> 100	> 100	> 100	> 100	> 100	> 100	> 100	> 100	–
